Results as given in patent publication US20070167488A1, “Novel therapeutic use” (Leo Pharma A/S, priority 2003, published 2007).

How the values were obtained:
[1] = system: IL-6; assay: IL-6 production by spleen cells of immunized, dosed mice after in vitro restimulation with PLP139-153; type: cell-based, mouse; conditions: example 6, 50 mg/kg i.p. daily for 10 days, vs vehicle treated group
[2] = system: EAE induced in SJL/J mice with a peptide from myelin proteolipid protein (PLP139-153); assay: EAE model in SJL/J mice immunized with PLP139-153 peptide; type: in vivo, mouse; conditions: for Inhibition of EAE compared with the suspension vehicle group (in words): SJL/J mice, PLP139-153, doses as in tables 1 and 3
[3] = system: IL-2; assay: IL-2 production by spleen cells of immunized, dosed mice after in vitro restimulation with PLP139-153; type: cell-based, mouse; conditions: for Level of antigen-specific IL-2 production of spleen cells: example 6, vs vehicle treated group
[4] = system: IL-17; assay: IL-17 production by spleen cells of immunized, dosed mice after in vitro restimulation with PLP139-153; type: cell-based, mouse; conditions: example 6, 50 mg/kg i.p. daily for 10 days, vs vehicle treated group
[5] = system: IFN-γ; assay: IFN-γ production by spleen cells of immunized, dosed mice after in vitro restimulation with PLP139-153; type: cell-based, mouse; conditions: example 6, 50 mg/kg i.p. daily for 10 days, vs vehicle treated group
[6] = system: EAE in C57BL/6 mice immunized with a peptide from myelin oligodendrocyte glycoprotein (MOG35-55); assay: Second EAE model: C57BL/6JBom mice immunized with MOG35-55 peptide; type: in vivo, mouse
[7] = system: gene expression in inflammatory cells in the spleen; assay: Oligonucleotide array of spleen cDNA from treated and control EAE mice; type: in vivo, mouse
Procedure: Control mice were given suspension vehicle as described in example 1. On day 7 after treatment, the mice (both treated and control) were sacrificed and their spleens were excised, submerged into the RNA storage solution RNA-later (Sigma-Aldrich, St. Louis, USA) and stored at −80° C. Total RNA was extracted from the mouse spleens using the TRIZOL extraction procedure according to the manufacturer's protocol followed by DNAse treatment (Invitrogen, Carlsbad, Calif., USA). The RNA quality was visualized by agarose gel electrophoresis. Ten μg total RNA was converted into purified ^33P-labelled cDNA probe according to the Atlas Pure Total RNA labelling protocol (BD Biosciences, Palo Alto, Calif., USA).
Labelled probes (10×10^6 CPM) were denatured at 95° C. for 2 minutes and cooled at 4° C. for 2 minutes prior to hybridization to oligonucleotide arrays comprising about 5.000 mouse genes in duplicate dots (Atlas Plastic Mouse 5K MicroArray, BD Biosciences, Palo Alto, Calif., USA). Arrays were hybridized for 16 h at 60° C. with rotation according to the manufacturer's protocol. After hybridization and appropriate washing steps, the arrays were imaged using phospho imager technology together with a STORM 860 scanner (Molecular Dynamics, Sunnyvale, Calif., USA). Subsequently, the images were analysed using the Atlas Image 2.7 software (BD Biosciences, Palo Alto, Calif., USA).

[8] = target: JAK-2 kinase (Mus musculus, UniProt Q62120); conditions: J. J. Bright et al., J. Immunol. 162, 1999; cited from earlier work
Chain of JAK-2 kinase (Q62120 whole entry): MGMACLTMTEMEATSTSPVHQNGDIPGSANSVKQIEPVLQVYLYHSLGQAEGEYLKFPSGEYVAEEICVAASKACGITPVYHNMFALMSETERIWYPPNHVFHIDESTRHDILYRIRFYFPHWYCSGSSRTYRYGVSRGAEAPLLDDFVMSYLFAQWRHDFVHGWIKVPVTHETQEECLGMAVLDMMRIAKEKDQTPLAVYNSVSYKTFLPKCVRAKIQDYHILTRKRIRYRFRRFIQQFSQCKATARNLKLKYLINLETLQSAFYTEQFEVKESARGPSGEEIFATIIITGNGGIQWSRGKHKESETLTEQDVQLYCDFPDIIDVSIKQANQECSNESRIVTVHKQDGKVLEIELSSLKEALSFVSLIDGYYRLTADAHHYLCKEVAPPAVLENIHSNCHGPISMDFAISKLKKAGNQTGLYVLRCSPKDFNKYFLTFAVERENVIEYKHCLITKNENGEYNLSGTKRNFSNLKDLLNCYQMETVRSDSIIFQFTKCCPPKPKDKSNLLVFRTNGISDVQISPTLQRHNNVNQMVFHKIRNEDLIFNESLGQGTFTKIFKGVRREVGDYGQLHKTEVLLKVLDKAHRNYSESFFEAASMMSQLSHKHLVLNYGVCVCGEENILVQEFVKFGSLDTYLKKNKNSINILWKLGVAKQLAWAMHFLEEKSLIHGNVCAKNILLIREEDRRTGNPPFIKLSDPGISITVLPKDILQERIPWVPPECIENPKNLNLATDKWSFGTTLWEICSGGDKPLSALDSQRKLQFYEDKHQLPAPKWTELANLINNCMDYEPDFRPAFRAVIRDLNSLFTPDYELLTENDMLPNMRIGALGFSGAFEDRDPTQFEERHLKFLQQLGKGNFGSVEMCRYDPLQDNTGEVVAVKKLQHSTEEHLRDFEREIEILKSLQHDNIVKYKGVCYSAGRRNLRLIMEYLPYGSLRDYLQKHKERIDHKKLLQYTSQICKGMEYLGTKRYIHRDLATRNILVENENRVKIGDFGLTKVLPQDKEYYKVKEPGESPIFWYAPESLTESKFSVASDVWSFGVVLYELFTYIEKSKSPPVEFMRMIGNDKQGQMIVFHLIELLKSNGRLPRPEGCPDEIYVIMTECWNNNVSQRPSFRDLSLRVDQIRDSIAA

[9] = system: lymphocyte adhesion to inflamed vessels; conditions: G. Constantin et al., J. Immunol. 162, 1999; cited from earlier work
[10] = listed as 3-(1H-indol-3-ylmethylene)-1,3-dihydro-indol-2-one
[11] = Table 3, experiment with vehicle AUC 28.6, day 0-21, 50 mg/kg i.p. daily
[12] = MOG35-55, day 0-21, 50 mg/kg i.p. daily
[13] = Exp. 1, terminated day 21, 50 mg/kg i.p. daily
[14] = Exp. 2, terminated day 21, 4 mg/kg i.p. daily
[15] = Exp. 2, terminated day 21, 10 mg/kg i.p. daily
[16] = Exp. 2, terminated day 21, 25 mg/kg i.p. daily
[17] = Exp. 2, terminated day 21, 50 mg/kg i.p. daily
[18] = Exp. 3, terminated day 28, 25 mg/kg i.p. daily
[19] = Exp. 3, terminated day 28, 50 mg/kg i.p. daily
[20] = Exp. 4, terminated day 35, 50 mg/kg i.p. daily

O=C1Nc2ccccc2C1=Cc1c[nH]c2ccccc12 (racemic) [Compound 57, 3-(1H-indol-3-ylmethylene)-1,3-dihydro-indol-2-one]
Level of antigen-specific IL-6 production of spleen cells [1, 10]: inhibit expression
Level of antigen-specific IL-6 production of spleen cells ([1]; listed as compound 57): clearly reduced
Inhibition of EAE compared with the suspension vehicle group (in words) [2]: clear and significant inhibition
AUC (mean) of the disease score [2, 11]: 4.70
inhibition (%) [2, 11]: 84%
Inhibition (%) of EAE (area-under-curve of the disease score) ([2]; Table 7, 50 mg/kg p.o., suspension vehicle): 32%
Level of antigen-specific IL-2 production of spleen cells ([3]; 50 mg/kg i.p. daily for 10 days, listed as 3-(1H-indol-3-ylmethylene)-1,3-dihydro-indol-2-one): inhibit expression
Level of antigen-specific IL-2 production of spleen cells ([3]; 50 mg/kg i.p. daily for 10 days, listed as compound 57): clearly reduced
Level of antigen-specific IL-17 production of spleen cells [4, 10]: inhibit expression
Level of antigen-specific IL-17 production of spleen cells ([4]; listed as compound 57): clearly reduced
Level of antigen-specific IFN-γ production of spleen cells [5, 10]: inhibit expression
Level of antigen-specific IFN-γ production of spleen cells ([5]; listed as compound 57): clearly reduced

Cc1cc(C)c(C=C2C(=O)Nc3ccccc32)[nH]1 [Compound 226, 3-(3,5-dimethyl-1H-pyrrol-2-ylmethylene)-1,3-dihydro-indol-2-one]
Level of antigen-specific IL-6 production of spleen cells ([1]; listed as compound 226): clearly reduced
Effect on disease development (in words) ([6]; MOG35-55, 50 mg/kg i.p.): significant effect on disease development
AUC (mean) of the disease score [6, 12]: 2.65
inhibition (%) [6, 12]: 83%
Genes on the Atlas MicroArray differentially expressed, treated vs control mice ([7]; day 7, daily dosing from day 0): Approximately 1.5%
Expression of genes encoding adhesion molecules (lymphocyte antigens 6 locus D, 6 locus E, 84) ([7]; day 7, treated vs control mice): upregulated
Expression of genes encoding interleukin 1 receptor, interleukin 10 receptor alpha, TNF receptor and TNF receptor-associated factor 1 ([7]; day 7, treated vs control mice): downregulated
AUC (mean) of the disease score [2, 13]: 1.8
inhibition (%) [2, 13]: 90%
AUC (mean) of the disease score [2, 14]: 21.2
inhibition (%) [2, 14]: 17%
AUC (mean) of the disease score [2, 15]: 19.6
inhibition (%) [2, 15]: 23%
AUC (mean) of the disease score [2, 16]: 4.6
inhibition (%) [2, 16]: 82%
AUC (mean) of the disease score [2, 17]: 0.6
inhibition (%) [2, 17]: 98%
AUC (mean) of the disease score [2, 18]: 11.9
inhibition (%) [2, 18]: 70%
AUC (mean) of the disease score [2, 19]: 6.6
inhibition (%) [2, 19]: 83%
AUC (mean) of the disease score [2, 20]: 21.9
inhibition (%) [2, 20]: 65%
Inhibition of EAE compared with the suspension vehicle group (in words) [2]: significantly inhibit
Effect on development of EAE in prolonged experiments (in words) ([2]; experiments 3 and 4, prolonged with one and two weeks): delays development of EAE rather than prevents the disease
IL-2 production of restimulated spleen cells after in vivo dosing ([3]; 50 mg/kg i.p. daily for 10 days, spleen cells day 10, PLP139-153, 3 days culture): markedly inhibited
IL-2 production of cells from suspension vehicle treated mice on in vitro incubation with compound ([3]; 10^−7 M in vitro for 3 days): did not inhibit
Level of antigen-specific IL-2 production of spleen cells ([3]; 50 mg/kg i.p. daily for 10 days, listed as compound 226): clearly reduced
Level of antigen-specific IL-17 production of spleen cells ([4]; listed as compound 226): clearly reduced
Level of antigen-specific IFN-γ production of spleen cells ([5]; listed as compound 226): clearly reduced

N#C/C(=C\c1ccc(O)c(O)c1)C(=O)NCc1ccccc1 [tyrphostin B42]
Inhibition of IL-12 induced tyrosine phosphorylation and activation of JAK-2 kinase [8]: inhibit
Inhibition of lymphocyte adhesion to inflamed vessels [9]: effective inhibitor
